How the values were obtained:
Type in all cases: in vivo
Abutilon theophrasti [1] = assay: Pre-emergence herbicidal action, ABUTH; settings: dosage 320 g/ha, scored visually after 3 weeks vs untreated controls
Summary of the method: (§1)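 Percent herbicidal activity rated by eye 3 weeks after pre-emergence soil-surface application, compared with untreated pots. Seeds sat under sandy loam; sprays carried 0.2% wetting agent.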

Alopecurus myosuroides [2] = assay: Pre-emergence herbicidal action, ALOMY; settings: dosage 320 g/ha, scored visually after 3 weeks vs untreated controls
Summary of the method: as §1

Amaranthus retroflexus [3] = assay: Pre-emergence herbicidal action, AMARE; settings: dosage 320 g/ha, scored visually after 3 weeks vs untreated controls
Summary of the method: as §1

Avena fatua [4] = assay: Pre-emergence herbicidal action, AVEFA; settings: dosage 320 g/ha, scored visually after 3 weeks vs untreated controls
Summary of the method: as §1

Cyperus serotinus = assay: Pre-emergence herbicidal action, CYPES; settings: dosage 320 g/ha, scored visually after 3 weeks vs untreated controls
Summary of the method: as §1

Matricaria inodora = assay: Pre-emergence herbicidal action, MATIN; settings: dosage 320 g/ha, scored visually after 3 weeks vs untreated controls
Summary of the method: as §1

Setaria viridis [5] = assay: Pre-emergence herbicidal action, SETVI; settings: dosage 320 g/ha, scored visually after 3 weeks vs untreated controls
Summary of the method: as §1

Stellaria media [6] = assay: Pre-emergence herbicidal action, STEME; settings: dosage 320 g/ha, scored visually after 3 weeks vs untreated controls
Summary of the method: as §1

Viola tricolor [7] = assay: Pre-emergence herbicidal action, VIOTR; settings: dosage 320 g/ha, scored visually after 3 weeks vs untreated controls
Summary of the method: as §1

Abutilon theophrasti [8] = assay: Post-emergence herbicidal action, ABUTH; settings: 80 g/ha, Table D
Summary of the method: (§2)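 Greenhouse-grown plants were sprayed at the one-leaf stage, 2–3 weeks after sowing. Damage was scored visually after about 3 weeks against untreated controls, as % action (100% = dead, 0% = like control).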

Alopecurus myosuroides [9] = assay: Post-emergence herbicidal action, ALOMY; settings: 80 g/ha, Table C
Experimental: (§3) Seeds of monocotyledonous and dicotyledonous weed and crop plants are laid out in sandy loam soil in wood-fiber pots, covered with soil and cultivated in a greenhouse under good growth conditions. 2 to 3 weeks after sowing, the test plants are treated at the one-leaf stage. The compounds of the invention, formulated in the form of wettable powders (WP) or as emulsion concentrates (EC), are then sprayed onto the green parts of the plants in the form of an aqueous suspension or emulsion at a water application rate equating to […], with addition of 0.2% wetting agent. After the test plants have been left to stand in the greenhouse under optimal growth conditions for about 3 weeks, the action of the preparations is assessed visually in comparison to untreated controls (herbicidal action in percent (%): 100% activity=the plants have died, 0% activity=like control plants). […] At the same time, inventive compounds leave Gramineae crops such as barley, wheat, rye, millet/sorghum, corn or rice virtually undamaged when applied post-emergence, even at high active compound dosages. In addition, some substances are also harmless to dicotyledonous crops such as soya, cotton, oilseed rape, sugar beet or potatoes. Some of the compounds according to the invention have high selectivity and are therefore suitable for controlling unwanted vegetation in agricultural crops by the post-emergence method. The data of Tables C and D below illustrate, in an exemplary manner, the […] herbicidal action of the compounds according to the invention, the herbicidal activity being stated in percent.
(§4) For comparison, the herbicidal activity of numerous compounds according to the invention was tested with the structurally closest compounds known from the documents WO 2011/035874, WO 2012/028579 and WO 2012/126932, by the pre- and post-emergence method.

Amaranthus retroflexus [10] = assay: Post-emergence herbicidal action, AMARE; settings: 80 g/ha, Table D
Summary of the method: as §2

Avena fatua [11] = assay: Post-emergence herbicidal action, AVEFA; settings: 80 g/ha, Table C
Experimental: as §3, §4

Pharbitis purpureum = assay: Post-emergence herbicidal action, PHBPU; settings: 80 g/ha, Table D
Summary of the method: as §2

Setaria viridis [12] = assay: Post-emergence herbicidal action, SETVI; settings: 80 g/ha, Table C
Summary of the method: as §2

Stellaria media [13] = assay: Post-emergence herbicidal action, STEME; settings: 80 g/ha, Table D
Summary of the method: as §2

Viola tricolor [14] = assay: Post-emergence herbicidal action, VIOTR; settings: 80 g/ha, Table D
Summary of the method: as §2

ECHCG = assay: Post-emergence herbicidal action, ECHCG; settings: 80 g/ha, Table C
Summary of the method: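 Weed and crop plants grown in sandy loam in the greenhouse, treated at the one-leaf stage 2–3 weeks after sowing. Damage scored visually after about 3 weeks vs untreated controls (0% = control, 100% = dead).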

For `CCSc1c(C(F)F)ccc(C(=O)Nc2nnnn2C)c1C` [Example 1-4], the “herbicidal activity ABUTH” value (Abutilon theophrasti [1]) was 100%, the “herbicidal activity ALOMY” value (Alopecurus myosuroides [2]) was 100% and the “herbicidal activity AMARE” value (Amaranthus retroflexus [3]) was 100%. For the same molecule, the “herbicidal activity AVEFA” value (Avena fatua [4]) was 100%, the “herbicidal activity CYPES” value (Cyperus serotinus) was 80% and the “herbicidal activity MATIN” value (Matricaria inodora) was 100%. The “herbicidal activity SETVI” value (Setaria viridis [5]) was 100%, the “Herbicidal activity STEME” value (Stellaria media [6]) was 100% and the “herbicidal activity VIOTR” value (Viola tricolor [7]) was 100%. For the same molecule, the “herbicidal activity ABUTH” value (Abutilon theophrasti [8]) was 100%, the “herbicidal activity ALOMY” value (Alopecurus myosuroides [9]) was 90% and the “herbicidal activity AMARE” value (Amaranthus retroflexus [10]) was 100%. For the same molecule, the “herbicidal activity AVEFA” value (Avena fatua [11]) was 100%, the “Herbicidal activity PHBPU” value (Pharbitis purpureum) was 100% and the “herbicidal activity SETVI” value (Setaria viridis [12]) was 100%. For the same molecule, the “Herbicidal activity STEME” value (Stellaria media [13]) was 100%, the “herbicidal activity VIOTR” value (Viola tricolor [14]) was 100% and the “Herbicidal activity ECHCG” value (ECHCG) was 100%.
For `CC[S+]([O-])c1c(C(F)F)ccc(C(=O)Nc2nnnn2C)c1C` (stereo not drawn) [Example 1-5], the “herbicidal activity ABUTH” value (Abutilon theophrasti [1]) was 100%, the “herbicidal activity ALOMY” value (Alopecurus myosuroides [2]) was 100% and the “herbicidal activity AMARE” value (Amaranthus retroflexus [3]) was 100%. For the same molecule, the “herbicidal activity AVEFA” value (Avena fatua [4]) was 100%, the “herbicidal activity CYPES” value (Cyperus serotinus) was 100% and the “herbicidal activity MATIN” value (Matricaria inodora) was 100%. The “herbicidal activity SETVI” value (Setaria viridis [5]) was 100%, the “Herbicidal activity STEME” value (Stellaria media [6]) was 90% and the “herbicidal activity VIOTR” value (Viola tricolor [7]) was 100%. The “herbicidal activity ABUTH” value (Abutilon theophrasti [8]) was 90%, the “herbicidal activity ALOMY” value (Alopecurus myosuroides [9]) was 100% and the “herbicidal activity AMARE” value (Amaranthus retroflexus [10]) was 100%. The “herbicidal activity AVEFA” value (Avena fatua [11]) was 100%, the “Herbicidal activity PHBPU” value (Pharbitis purpureum) was 100% and the “herbicidal activity SETVI” value (Setaria viridis [12]) was 100%. The “Herbicidal activity STEME” value (Stellaria media [13]) was 100%, the “herbicidal activity VIOTR” value (Viola tricolor [14]) was 100% and the “Herbicidal activity ECHCG” value (ECHCG) was 100%.
In the case of `CCS(=O)(=O)c1c(C(F)F)ccc(C(=O)Nc2nnnn2C)c1C` [Example 1-6], the “herbicidal activity ABUTH” value (Abutilon theophrasti [1]) is reported as 100%, the “herbicidal activity ALOMY” value (Alopecurus myosuroides [2]) is reported as 100% and the “herbicidal activity AMARE” value (Amaranthus retroflexus [3]) is reported as 100%. The “herbicidal activity AVEFA” value (Avena fatua [4]) was 100%, the “herbicidal activity CYPES” value (Cyperus serotinus) was 100% and the “herbicidal activity MATIN” value (Matricaria inodora) was 100%. For the same molecule, the “herbicidal activity SETVI” value (Setaria viridis [5]) was 100%, the “Herbicidal activity STEME” value (Stellaria media [6]) was 100% and the “herbicidal activity VIOTR” value (Viola tricolor [7]) was 100%. The “herbicidal activity ABUTH” value (Abutilon theophrasti [8]) was 90%, the “herbicidal activity ALOMY” value (Alopecurus myosuroides [9]) was 100% and the “herbicidal activity AMARE” value (Amaranthus retroflexus [10]) was 100%. For the same molecule, the “herbicidal activity AVEFA” value (Avena fatua [11]) was 100%, the “Herbicidal activity PHBPU” value (Pharbitis purpureum) was 100% and the “herbicidal activity SETVI” value (Setaria viridis [12]) was 100%. The “Herbicidal activity STEME” value (Stellaria media [13]) was 100%, the “herbicidal activity VIOTR” value (Viola tricolor [14]) was 100% and the “Herbicidal activity ECHCG” value (ECHCG) was 100%.
With `CCc1c(C(=O)Nc2nnnn2C)ccc(C(F)F)c1SC` [Example 1-13] the “herbicidal activity ABUTH” value (Abutilon theophrasti [1]) was 100%, the “herbicidal activity ALOMY” value (Alopecurus myosuroides [2]) was 100% and the “herbicidal activity AMARE” value (Amaranthus retroflexus [3]) was 100%. The “herbicidal activity AVEFA” value (Avena fatua [4]) was 100%, the “herbicidal activity CYPES” value (Cyperus serotinus) was 100% and the “herbicidal activity MATIN” value (Matricaria inodora) was 100%. For the same molecule, the “herbicidal activity SETVI” value (Setaria viridis [5]) was 100%, the “Herbicidal activity STEME” value (Stellaria media [6]) was 100% and the “herbicidal activity VIOTR” value (Viola tricolor [7]) was 100%. For the same molecule, the “herbicidal activity ABUTH” value (Abutilon theophrasti [8]) was 100%, the “herbicidal activity ALOMY” value (Alopecurus myosuroides [9]) was 90% and the “herbicidal activity AMARE” value (Amaranthus retroflexus [10]) was 100%. The “herbicidal activity AVEFA” value (Avena fatua [11]) was 100%, the “Herbicidal activity PHBPU” value (Pharbitis purpureum) was 100% and the “herbicidal activity SETVI” value (Setaria viridis [12]) was 90%. For the same molecule, the “Herbicidal activity STEME” value (Stellaria media [13]) was 100%, the “herbicidal activity VIOTR” value (Viola tricolor [14]) was 100% and the “Herbicidal activity ECHCG” value (ECHCG) was 90%.
For `CCc1c(C(=O)Nc2nnnn2C)ccc(C(F)F)c1[S+](C)[O-]` (stereo not drawn) [Example 1-14], the “herbicidal activity ABUTH” value (Abutilon theophrasti [1]) was 100%, the “herbicidal activity ALOMY” value (Alopecurus myosuroides [2]) was 100% and the “herbicidal activity AMARE” value (Amaranthus retroflexus [3]) was 100%. The “herbicidal activity AVEFA” value (Avena fatua [4]) was 100%, the “herbicidal activity CYPES” value (Cyperus serotinus) was 100% and the “herbicidal activity MATIN” value (Matricaria inodora) was 100%. The “herbicidal activity SETVI” value (Setaria viridis [5]) was 100%, the “Herbicidal activity STEME” value (Stellaria media [6]) was 100% and the “herbicidal activity VIOTR” value (Viola tricolor [7]) was 100%. The “herbicidal activity ABUTH” value (Abutilon theophrasti [8]) was 100%, the “herbicidal activity ALOMY” value (Alopecurus myosuroides [9]) was 90% and the “herbicidal activity AMARE” value (Amaranthus retroflexus [10]) was 90%. The “herbicidal activity AVEFA” value (Avena fatua [11]) was 90%, the “Herbicidal activity PHBPU” value (Pharbitis purpureum) was 90% and the “herbicidal activity SETVI” value (Setaria viridis [12]) was 100%. For the same molecule, the “Herbicidal activity STEME” value (Stellaria media [13]) was 100%, the “herbicidal activity VIOTR” value (Viola tricolor [14]) was 90% and the “Herbicidal activity ECHCG” value (ECHCG) was 100%.

— patent publication US20230183193A1, “4-DIFLUOROMETHYL BENZOYL AMIDES WITH HERBICIDAL ACTION” (BAYER CROPSCIENCE AKTIENGESELLSCHAFT, priority 2017, published 2023)
